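Following 48 hours of exposure in 96-well plates, responses at five concentrations were used to interpolate endpoints linearly. TGI: concentration producing complete growth inhibition.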
Legend:
Assay in all cases: inhibition of tumour cell growth, NCI panel, 48 h
A549 NSCLC = test system: A549 NSCLC
HT29 colon = test system: HT29 colon
IGROV1 ovarian = test system: IGROV1 ovarian
SF-268 CNS = test system: SF-268 CNS
HCT-15 colon = test system: HCT-15 colon
SK-MEL-2 melanoma = test system: SK-MEL-2 melanoma
NCI/ADR-RES ovarian = test system: NCI/ADR-RES ovarian
RXF 393 renal = test system: RXF 393 renal
OVCAR-4 ovarian = test system: OVCAR-4 ovarian
M14 melanoma = test system: M14 melanoma
HS 578T breast = test system: HS 578T breast
HCC-2998 colon = test system: HCC-2998 colon
HOP-62 NSCLC = test system: HOP-62 NSCLC
COLO 205 colon = test system: COLO 205 colon
LOX IMVI melanoma = test system: LOX IMVI melanoma
OVCAR-5 ovarian = test system: OVCAR-5 ovarian
SNB-75 CNS = test system: SNB-75 CNS
CCRF-CEM leukemia = test system: CCRF-CEM leukemia

Row | Compound | TGI (A549 NSCLC) [µM] | TGI (HT29 colon) [µM] | TGI (IGROV1 ovarian) [µM] | TGI (SF-268 CNS) [µM] | TGI (HCT-15 colon) [µM] | TGI (SK-MEL-2 melanoma) [µM] | TGI (NCI/ADR-RES ovarian) [µM] | TGI (RXF 393 renal) [µM] | TGI (OVCAR-4 ovarian) [µM] | TGI (M14 melanoma) [µM] | TGI (HS 578T breast) [µM] | TGI (HCC-2998 colon) [µM] | TGI (HOP-62 NSCLC) [µM] | TGI (COLO 205 colon) [µM] | TGI (LOX IMVI melanoma) [µM] | TGI (OVCAR-5 ovarian) [µM] | TGI (SNB-75 CNS) [µM] | TGI (CCRF-CEM leukemia) [µM]
1 | Nn1c(CCCCCCCCc2nnc(COc3ccccc3)n2N)nnc1COc1ccccc1 | > 100 | > 100 | > 100 | > 100 | > 100 | > 100 | > 100 | > 100 | > 100 | > 100 | > 100 | > 100 | > 100 | > 100 | > 100 | > 100 | > 100 | –
2 | Cc1nc2c(cc1C(=O)N/N=C/c1ccc([N+](=O)[O-])cc1)c(=O)n(C)c(=O)n2C | > 100 | > 100 | > 100 | > 100 | > 100 | > 100 | > 100 | 65 | > 100 | > 100 | 86.6 | > 100 | 35.8 | > 100 | – | > 100 | > 100 | > 100
3 | Cc1cc(C)c2c(c1)C1=NCCN1C2(O)c1ccc(Cl)cc1 (configuration not stated) | 35.5 | 31.5 | 27.4 | 31 | 32.4 | 34.7 | 30.2 | 27.6 | 29.7 | 28.4 | 32 | – | 29.3 | 29 | 93.4 | 33.1 | 25 | 54.7
4 | COc1cc2c(cc1OC)CN1CCCc3cc(OC)c(OC)cc3C1C2 (configuration not stated) | > 100 | 61.7 | > 100 | > 100 | > 100 | – | > 100 | 94.4 | > 100 | > 100 | > 100 | > 100 | > 100 | > 100 | > 100 | > 100 | 52 | > 100
5 | C=CCc1cc(C=C(C#N)C#N)cc(OC)c1O | > 100 | > 100 | > 100 | – | > 100 | > 100 | > 100 | > 100 | > 100 | > 100 | > 100 | – | – | > 100 | > 100 | > 100 | > 100 | > 100
6 | COc1ccc(/C=C/C(=N/NC(=O)N/N=C(/C=C/c2ccc(OC)cc2)C(C)(C)CN2CCCCC2)C(C)(C)CN2CCCCC2)cc1 | 3.49 | 3.11 | 5.77 | – | 7.06 | 3.1 | 4.33 | 2.72 | 3.96 | 3.12 | 4.28 | 3.42 | 3.93 | 3.1 | 2.82 | 8.16 | 2.89 | 3.39
7 | Cc1cc(S(=O)(=O)NC2=NC(c3ccccc3)c3cc(Cl)ccc3N2)c(S)cc1Cl (configuration not stated) | > 100 | > 100 | > 100 | > 100 | > 100 | – | > 100 | > 100 | > 100 | > 100 | > 100 | > 100 | > 100 | > 100 | > 100 | > 100 | > 100 | > 100

Source: PubChem BioAssay (NCI)
